{"source": "paper PMC8536627", "about": "“Hydrolytic stability of anticancer drugs and one metabolite in the aquatic environment” (Environmental Science and Pollution Research International, 2021)", "key": {"[1]": {"conditions": "room temperature, ref Franquet-Griell et al. [2017], cited from earlier work"}, "[2]": {"conditions": "20 °C, ref Gilard et al. ([1994]), cited from earlier work"}, "physchem [3]": {"assay": "physchem", "conditions": "5 days; for Degradation level in the preliminary test: dark", "procedure": "The incubation was performed in the dark, in order to avoid the influence of the photolysis on degradation of the analytes. The water used for the preparation of buffers was autoclaved, all glassware was clean, flushed with methanol, and dried in high temperature. Samples were closed in glass tubes with a sealed cap. The air from above the solution was removed by a nitrogen stream just before capping. In the preliminary test, solutions of single analytes were prepared in each tested pH: 4, 7, and 9, which is required by the OECD guidelines. There was also a blank sample prepared for each pH. Samples in the preliminary test were prepared in two parallel replicates. Moreover, the complete preliminary test was repeated twice. The preliminary test was performed at 50 °C for 5 days. […] In the case of the extended tests, 7 measuring points were provided during the time of the test. Each measuring point was performed in two parallel replicates. […] The test was conducted for 30 days or to 90 % elimination of a compound. Obtained results were used to determine the hydrolysis rate constant (k) using equation: 1 lnCt/C0=kt\nThe HPLC-UV/Vis technique was applied to determine the level of hydrolytic degradation of the analytes. In the preliminary test, the control and blank samples were analyzed at the beginning and the end of the test. […] In the extended test, the samples collected in the time intervals were analyzed, and peak areas were compared to those obtained at the beginning of the test. This was used to determine the kinetic of this hydrolysis process by using the Equation 1. In general, each analyte was analyzed by a simple HPLC method with UV/Vis detection. Gemini C18 (Phenomenex, USA), 5 μm, 110 Å, 150 mm × 4.6 mm chromatographic column was applied for each method and three different mobile phases were used (water or 0.1 % HCOOH) mixed with the acetonitrile. The conditions applied during the LC-MS analysis with an ion trap detector for the qualitative analysis of the samples collected after the extended tests at 20 and 70 °C are presented in the Table S2."}, "[4]": {"conditions": "dark conditions, 20 °C, ref Buerge et al. ([2006]); cited from earlier work"}, "physchem [5]": {"assay": "physchem", "assay_type": "physicochemical", "conditions": "for half-life: buffer, read-out: t½, extrapolated half-life (converted)", "procedure": "By obtaining at least two rate constants for two different temperatures, it is possible to calculate the rate constants and, in consequence, half-lives at other temperatures, according to the Arrhenius equation: 3 k=A×e^−E/R×Torlnk=−E/R×T+lnA\nTherefore, these equations were applied to extrapolate the obtained results and calculate the rate constants and half-lives of unstable anticancer drugs in more environmentally relevant temperatures (4, 10, or 15 °C), which are typical to natural waters.\nAdditionally, these observations confirm that CP is much more vulnerable for hydrolysis than IF, which is interesting how two isomers (like CP and IF) may differently undergo hydrolysis process. […] If the conclusions were drawn only based on the results from the preliminary experiments (incubation at 50 °C for 5 days), it would be assumed that both compounds, especially CP, are very unstable. […] Moreover, using Equation 3, it was possible to extrapolate the results to determine the rate constants and half-lives at the temperatures 4, 10, and 15 °C, which are ordinary for environmental waters (Table 2)."}, "physchem [6]": {"assay": "physchem", "assay_type": "physicochemical", "procedure": "Moreover, the complete preliminary test was repeated twice. […] Each measuring point was performed in two parallel replicates.\nwhere t, time; ct, c0, concentration of the analyte at a time (0 means the beginning of the test); k, rate constant.\nBased on this, the t1/2 was determined by using the equation: 2 t1/2=ln2/k\nwhere t1/2, half-life of the analyte; k, rate constant.\nThe degradation was monitored for 30 days or until 90 % of a compound was degraded. Based on the obtained results (Fig. 4) the constant rates (k) and half-lives (t1/2) have been calculated (Table 1).\nAfter determining the hydrolysis rate constants it was possible to calculate activation energy (Ea) of this process at each pH, either from plotting ln k from T^−1 (Figure 5) when there were three k values obtained for each compound and pH (CP at pH 4, 7, and 9 as well as IF at pH 4) or from the following equation (for IF at pH 7 and 9, where only two k values were obtained) (Table 1): 4 E=Rlnk2−lnk1/1/T1¯−1/T2\nwhere R, gas constant (8.314 J/mol × K); k1, k2, rate constants for different temperatures; T, absolute temperature (K)."}, "[7]": {"conditions": "pH 7 and 8.1, 5 days, calculated; ref Booker et al. ([2014]); cited from earlier work"}, "[8]": {"conditions": "HPLC water with 4 % DMSO, ref Negreira et al. ([2013a]), cited from earlier work"}}, "note": "Entries after “also recorded” stand apart in the source; their conditions may differ. Read-outs that look alike come from different tables or passages of the source.", "data": [{"molecule": "O=P1(N(CCCl)CCCl)NCCCO1", "note": "(stereo not shown) [CP, cyclophosphamide]", "values": [{"measurement": "Hydrolytic stability in milli-Q water", "setting": "[1]; milli-Q water, natural pH", "result": "stable"}, {"measurement": "Stability during a 48-h test in pure water", "setting": "[1]; pure water, 48 h", "result": "stable"}, {"measurement": "Initial concentration present after 7 days", "setting": "[2]; pH 3.4–8.6, 7 days", "result": "over 95%"}, {"measurement": "Maximum degradation after 17 days", "setting": "[2]; pH 3.4–8.6, 17 days", "result": "≤ 20", "unit": "%"}, {"measurement": "Hydrolytic stability in the preliminary test", "setting": "physchem [3]; pH 4, 7 and 9, 50 °C", "result": "unstable; also recorded: susceptible to hydrolysis"}, {"measurement": "Degradation level in the preliminary test", "setting": "physchem [3]; pH 4, 50 °C", "result": "completely eliminated"}, {"measurement": "Degradation level in the preliminary test", "setting": "physchem [3]; pH 7, 50 °C", "result": 91.6, "unit": "%"}, {"measurement": "Degradation level in the preliminary test", "setting": "physchem [3]; pH 9, 50 °C", "result": "completely eliminated"}, {"measurement": "Half-life in lake water", "setting": "[4]", "result": "around 80 days"}, {"measurement": "k, extrapolated rate constant", "setting": "physchem [5]; 4 °C, pH 4", "result": "5.1e-05", "unit": "h⁻¹"}, {"measurement": "k, extrapolated rate constant", "setting": "physchem [5]; 4 °C, pH 7", "result": "5.3e-05", "unit": "h⁻¹"}, {"measurement": "k, extrapolated rate constant", "setting": "physchem [5]; 4 °C, pH 9", "result": "5.3e-05", "unit": "h⁻¹"}, {"measurement": "k, extrapolated rate constant", "setting": "physchem [5]; 10 °C, pH 4", "result": "7.1e-05", "unit": "h⁻¹"}, {"measurement": "k, extrapolated rate constant", "setting": "physchem [5]; 10 °C, pH 7", "result": "7.4e-05", "unit": "h⁻¹"}, {"measurement": "k, extrapolated rate constant", "setting": "physchem [5]; 10 °C, pH 9", "result": "7.3e-05", "unit": "h⁻¹"}, {"measurement": "k, extrapolated rate constant", "setting": "physchem [5]; 15 °C, pH 4", "result": 0.000161, "unit": "h⁻¹"}, {"measurement": "k, extrapolated rate constant", "setting": "physchem [5]; 15 °C, pH 7", "result": 0.000166, "unit": "h⁻¹"}, {"measurement": "k, extrapolated rate constant", "setting": "physchem [5]; 15 °C, pH 9", "result": 0.000166, "unit": "h⁻¹"}, {"measurement": "half-life", "setting": "physchem [5]; pH 4, 4 °C, pH 4", "result": 568, "unit": "days"}, {"measurement": "half-life", "setting": "physchem [5]; pH 4, 10 °C, pH 4", "result": 406, "unit": "days"}, {"measurement": "half-life", "setting": "physchem [5]; pH 4, 15 °C, pH 4", "result": 179, "unit": "days"}, {"measurement": "half-life", "setting": "physchem [5]; pH 7, 4 °C, pH 7", "result": 549, "unit": "days"}, {"measurement": "half-life", "setting": "physchem [5]; pH 7, 10 °C, pH 7", "result": 393, "unit": "days"}, {"measurement": "half-life", "setting": "physchem [5]; pH 7, 15 °C, pH 7", "result": 174, "unit": "days"}, {"measurement": "half-life", "setting": "physchem [5]; pH 9, 4 °C, pH 9", "result": 550, "unit": "days"}, {"measurement": "half-life", "setting": "physchem [5]; pH 9, 10 °C, pH 9", "result": 394, "unit": "days"}, {"measurement": "half-life", "setting": "physchem [5]; pH 9, 15 °C, pH 9", "result": 174, "unit": "days"}, {"measurement": "Degradation of initial amount in 30 days", "setting": "physchem [6]; 20 °C, 30 days, pH not specified (pH 4, 7, 9 tested)", "result": "around 20%"}, {"measurement": "half-life", "setting": "physchem [6]; 20 °C, all pH, read-out: Half-life (converted)", "result": "~80", "unit": "days"}, {"measurement": "k, hydrolysis rate constant", "setting": "physchem [6]; 20 °C, pH 4", "result": 0.00035, "unit": "h⁻¹"}, {"measurement": "k, hydrolysis rate constant", "setting": "physchem [6]; 20 °C, pH 7", "result": 0.00038, "unit": "h⁻¹"}, {"measurement": "k, hydrolysis rate constant", "setting": "physchem [6]; 20 °C, pH 9", "result": 0.00037, "unit": "h⁻¹"}, {"measurement": "k, hydrolysis rate constant", "setting": "physchem [6]; 50 °C, pH 4", "result": 0.025, "unit": "h⁻¹"}, {"measurement": "k, hydrolysis rate constant", "setting": "physchem [6]; 50 °C, pH 7", "result": 0.024, "unit": "h⁻¹"}, {"measurement": "k, hydrolysis rate constant", "setting": "physchem [6]; 50 °C, pH 9", "result": 0.024, "unit": "h⁻¹"}, {"measurement": "half-life", "setting": "physchem [6]; 50 °C, range over three pH values, read-out: t½, half-life (converted)", "result": "1.15 to 1.23", "unit": "days"}, {"measurement": "k, hydrolysis rate constant", "setting": "physchem [6]; 70 °C, pH 4", "result": 0.27, "unit": "h⁻¹"}, {"measurement": "k, hydrolysis rate constant", "setting": "physchem [6]; 70 °C, pH 7", "result": 0.28, "unit": "h⁻¹"}, {"measurement": "k, hydrolysis rate constant", "setting": "physchem [6]; 70 °C, pH 9", "result": 0.27, "unit": "h⁻¹"}, {"measurement": "half-life", "setting": "physchem [6]; buffer, pH 4, 20 °C, pH 4, read-out: t½, half-life (converted)", "result": 81.8, "unit": "days"}, {"measurement": "half-life", "setting": "physchem [6]; buffer, pH 4, 50 °C, pH 4, read-out: t½, half-life (converted)", "result": 1.15, "unit": "days"}, {"measurement": "half-life", "setting": "physchem [6]; buffer, pH 4, 70 °C, pH 4, read-out: t½, half-life (converted)", "result": 0.108, "unit": "days"}, {"measurement": "half-life", "setting": "physchem [6]; buffer, pH 4, 70 °C, range over pH 4, 7, 9, read-out: t½, half-life (converted)", "result": "0.104 to 0.108", "unit": "days"}, {"measurement": "half-life", "setting": "physchem [6]; buffer, pH 7, 20 °C, pH 7, read-out: t½, half-life (converted)", "result": 77.8, "unit": "days"}, {"measurement": "half-life", "setting": "physchem [6]; buffer, pH 7, 50 °C, pH 7, read-out: t½, half-life (converted)", "result": 1.23, "unit": "days"}, {"measurement": "half-life", "setting": "physchem [6]; buffer, pH 7, 70 °C, pH 7, read-out: t½, half-life (converted)", "result": 0.104, "unit": "days"}, {"measurement": "half-life", "setting": "physchem [6]; buffer, pH 9, 20 °C, pH 9, read-out: t½, half-life (converted)", "result": 78.9, "unit": "days"}, {"measurement": "half-life", "setting": "physchem [6]; buffer, pH 9, 50 °C, pH 9, read-out: t½, half-life (converted)", "result": 1.2, "unit": "days"}, {"measurement": "half-life", "setting": "physchem [6]; buffer, pH 9, 70 °C, pH 9, read-out: t½, half-life (converted)", "result": 0.104, "unit": "days"}, {"measurement": "Ea, activation energy of hydrolysis", "setting": "physchem [6]; pH 4", "result": 26.58, "unit": "kcal/mol"}, {"measurement": "Ea, activation energy of hydrolysis", "setting": "physchem [6]; pH 7", "result": 26.43, "unit": "kcal/mol"}, {"measurement": "Ea, activation energy of hydrolysis", "setting": "physchem [6]; pH 9", "result": 26.41, "unit": "kcal/mol"}, {"measurement": "Ea, activation energy of hydrolysis", "setting": "physchem [6]; range over pH 4, 7, 9", "result": "26.41 to 26.58", "unit": "kcal/mol"}, {"measurement": "Stability assessed with SPARC from molecular structure", "setting": "[7]", "result": "stable"}, {"measurement": "Stability in 24 h test", "setting": "[8]; 4 °C", "result": "stable"}, {"measurement": "Long-term stability at 4 °C", "setting": "[8]; 4 °C", "result": "stable for 1 month"}, {"measurement": "Stability in 24 h test", "setting": "[8]; 15 °C", "result": "still stable"}, {"measurement": "Stability in 24 h test", "setting": "[8]; 25 °C", "result": "remained stable"}]}]}
